Experimental data: patent publication US12187758B2 (ROME Therapeutics, Inc., priority 2022, dated 2025)
pIC50: −log10 of the molar value.

Tests used:
Assay type in all cases: cell-based
[1] = tested on: SDH-A (succinate dehydrogenase-A); assay: Mitochondria toxicity assay with PC3 cells, in-cell ELISA SDH-A; details: 5 days treatment
Description: (§1) Exemplary compounds were tested for inhibition of expression of mitochondria DNA encoded proteins COX-1 […]. SDH-A (succinate dehydrogenase-A) is a control mitochondria protein encoded by nuclear DNA. Reduction in COX-1 expression indicates off target inhibition of mitochondria DNA synthesis which leads to mitochondrial toxicity. Assay procedures and results are described below.
(§2) PC3 cells were purchased from ATCC and cultured in F-12 Kaighn's modified medium (Hyclone), 10% heat-inactivated fetal bovine serum (Invitrogen), 1% Penicillin-Streptomycin (Invitrogen). PC3 cells were treated with a dose titration of a test compound on 96 well plates for 5 days at 37° C., 5% CO2 in a humidified incubator. The treatment plates are duplicated, one for in-cell ELISA for mitochondria proteins and one for cytotoxicity.
(§3) In-cell ELISA was performed to measure mitochondrial proteins using MitoBiogenesis In-Cell ELISA kit (Abcam) per manufacturer's instruction. The medium was aspirated from the compound treated cells, 100 μl per well of 4% paraformaldehyde (Solarbio) was added and cells were incubated at room temperature for 20 minutes. The cells were washed three times with PBS. 100 μl of 0.5% acetic acid was added per cell, and the cells were incubate at room temperature for 5 minutes. Cells were washed once with PBS. 100 μl per well of Permeabilization Buffer was added, and the cells incubate at room temperature for 30 minutes. The permeabilization buffer was removed and 200 μl per well 2× Blocking Buffer was added and the cells were incubated at room temperature for 2 hours. After removing the Blocking Buffer 100 μl per well of primary antibody to SDH-A or COX-1 was added, and the cells were incubated at 4° C. overnight. The primary antibody solution was removed and cells were washed 3 times with the Wash Buffer. 100 μl per well of AP- and HRP-labelled secondary antibodies was added, and the cells were incubated at room temperature for 1 hour. The cells were then washed 4 times with the Wash Buffer. For SDH-A detection, 100 μl per well AP Development Solution was added, and the cells were incubated at room temperature for 10 minutes. Cells were then read on CLARTO star^plus microplate reader (BMG Labtech) for kinetic readings at 405 nm for 5 minutes. […] The cells were then read on CLARTO star^plus microplate reader (BMG Labtech) for kinetic readings at 600 nm for 15 minutes.
(§4) In the table “A” represents values<1.0 μM; “B” represents values from >1.0 μM to ≤10.0 μM; “C” represents values from >10.0 μM to ≤50.0 μM; “D” represents values from >50.0 μM to ≤100.0 μM; and “E” represents values>100.0 μM.

[2] = tested on: PC3 cells; assay: Mitochondria toxicity assay with PC3 cells, cytotoxicity (Cell Titer Glo); details: Homo sapiens, PC-3, 120 h, 5 days treatment
Description: as §2
For the cytotoxicity assay, the medium from the cell viability plate was removed, 50 μL per well of Cell Titer Glo (Promega, G9683) was added. Then the cells incubated for 30 minutes at room temperature. Luminescence was read by Envision (PerkinElmer 2105).
as §4

[3] = Mitochondria toxicity assay with PC3 cells, in-cell ELISA COX-1; details: 5 days treatment
Description: as §1, §2, §3, §4

[4] = tested on: THP1-Dual KO-TREX1 cells; assay: THP1 TREX1 KO inhibition assay (type 1 interferon response); details: Homo sapiens, 144 h, type 1 interferon (QUANTI-LUC), 1 μM 5-aza-2′-deoxycytidine, six days
Description: Exemplary compounds were tested for their ability to alter the type 1 interferon response in THP1 Dual TREX1 KG cells treated with 5-aza-2′-deoxycytidine. Assay procedures and results are described below.
THP1 Dual TREX1 KG cells were purchased from Invivogen. The THP1-Dual™ KO-TREX1 cells were cultured in RPMI 1640, 10% heat-inactivated fetal bovine serum, 25 mM HEPES, 10 μg/mL blasticidin, and 100 μg/mL zeocin. THP1-Dual™ KO-TREX1 cells were treated with a dose titration of a test compound alone or in the presence of 1 μM 5-aza-2′-deoxycytidine (Sigma-Aldrich, cat #189825). Type 1 Interferon and cell viability were assessed after six days of treatment.
Stock solution of the test compound was prepared in DMSO followed by a three-fold dilution in DMSO. Additional 50× dilution was prepared in cell culture media for each dilution. 10 μL of diluted test compound was then added to a 96-well plate.
THP1-Dual™ KO-TREX1 cells were treated with either 1×PBS or 1 μM 5-aza-2′-deoxycytidine. […] of the THP1-Dual™ KO-TREX1 cells from either treatment were added to each well of the 96-well plate containing the test compound titration at 50,000 cells/well. Cells were incubated at 37° C., 5% CO2 in a humidified incubator for six days. Cells treated with 1 μM 5-aza-2′-deoxycytidine were added at the same density as above and incubated at 37° C., 5% CO2 in a humidified incubator for six days. On day six, 25 μL of cell supernatant was transferred to a 96-well white-walled plate, followed by addition to each well of 50 μL of QUANTI-LUC solution containing stabilizer. Luminescence was detected on a plate reader according to the manufacturer's instructions.
The remaining cells were assessed for cell viability by adding 25 μL of CellTiter-Glo (Promega, G9683) solution to each well, and being placed on a shaker for 10 minutes at room temperature. Luminescence was detected on a plate reader, according to the manufacturer's instructions.
In the tables “A” represents values≤0.050 μM; “B” represents values from >0.050 μM to ≤0.100 μM; “C” represents values from >0.100 μM to ≤0.250 μM; “D” represents values from >0.250 μM to ≤1 μM; “E” represents values>1 μM; and “NT”=not tested: […]

Compound	pIC50 [1]	pIC50 [2]	pIC50 [3]	pIC50 [4]
C#C[C@]1(CO)O[C@@H](n2ccc(N)nc2=O)[C@@H](F)[C@@H]1O [Compound 35, 4-amino-1-((2R,3S,4R,5R)-5-ethynyl-3-fluoro-4-hydroxy-5-(hydroxymethyl)tetrahydrofuran-2-yl)pyrimidin-2(1H)-one]	< 4.00	> 6.00	> 6.00	6.00 to 6.60
C#C[C@]1(CO)O[C@@H](c2ccc3c(N)ncnn23)C[C@@H]1O [Compound 37, (2R,3S,5R)-5-(4-aminopyrrolo[2,1-f][1,2,4]triazin-7-yl)-2-ethyny1-2-(hydroxymethyl)tetrahydro-furan-3-ol]	5.00 to 6.00	4.30 to 5.00	5.00 to 6.00	< 6.00
C#C[C@]1(CO)O[C@@H](n2cc(C)c(=O)[nH]c2=O)C[C@@H]1O [Compound 38, 1-((2R,4S,5R)-5-ethynyl-4-hydroxy-5-(hydroxymethyl)tetrahydrofuran-2-yl)-5-methylpyrimidine-2,4(1H,3H)-dione]	< 4.00	< 4.00	< 4.00	< 6.00
C#C[C@]1(CO)O[C@@H](n2cc(C)c(=O)[nH]c2=O)[C@@H](F)[C@@H]1O [Compound 39, 1-((2R,3S,4R,5R)-5-ethynyl-3-fluoro-4-hydroxy-5-(hydroxymethyl)tetrahydrofuran-2-yl)-5-methylpyrimidine-2,4(1H,3H)-dione]	< 4.00	< 4.00	< 4.00	< 6.00
C#C[C@]1(CO)O[C@@H](n2cnc3c(N)nc(F)nc32)[C@@H](F)[C@@H]1O [Compound 42, (2R,3R,4S,5R)-5-(6-amino-2-fluoro-9H-purin-9-yl)-2-ethynyl-4-fluoro-2-(hydroxymethyl)tetrahydro-furan-3-ol]	4.30 to 5.00	4.00 to 4.30	4.30 to 5.00	< 6.00
C=C[C@]1(CO)O[C@@H](n2ccc(N)nc2=O)C[C@@H]1O [Compound 43, 4-amino-1-((2R,4S,5R)-4-hydroxy-5-(hydroxymethyl)-5-vinyltetrahydrofuran-2-yl)pyrimidin-2(1H)-one]	5.00 to 6.00	< 4.00	5.00 to 6.00	< 6.00
Nc1ccn([C@H]2C[C@H](O)[C@](CO)(CF)O2)c(=O)n1 [Compound 45, 4-amino-1-((2R,4S,5R)-5-(fluoromethyl)-4-hydroxy-5-(hydroxymethyl)tetrahydro-furan-2-yl)pyrimidin-2(1H)-one]	> 6.00	5.00 to 6.00	> 6.00	< 6.00
Nc1nc2c(ncn2[C@H]2C[C@H](O)[C@](CO)(CF)O2)c(=O)[nH]1 [Compound 46, 2-amino-9-((2R,4S,5R)-5-(fluoromethyl)-4-hydroxy-5-(hydroxymethyl)tetrahydro-furan-2-yl)-1,9-dihydro-6H-purin-6-one]	5.00 to 6.00	5.00 to 6.00	5.00 to 6.00	< 6.00
C=C[C@]1(CO)O[C@@H](n2ccc(N)nc2=O)[C@@H](F)[C@@H]1O [Compound 47, 4-amino-1-((2R,3S,4R,5R)-3-fluoro-4-hydroxy-5-(hydroxymethyl)-5-vinyltetrahydrofuran-2-yl)pyrimidin-2(1H)-one]	5.00 to 6.00	5.00 to 6.00	5.00 to 6.00	< 6.00
[N-]=[N+]=N[C@]1(CO)O[C@@H](n2ccc(N)nc2=O)[C@@H](F)[C@@H]1O [Compound 50, 4-amino-1-((2R,3S,4R,5R)-5-azido-3-fluoro-4-hydroxy-5-(hydroxymethyl)tetrahydrofuran-2-yl)pyrimidin-2(1H)-one]	> 6.00	> 6.00	> 6.00	6.00 to 6.60
CC[C@]1(COC(=O)C(C)C)O[C@@H](n2ccc(N)nc2=O)C[C@@H]1OC(=O)C(C)C [Compound 52, [(2R,3S,5R)-5-(4-amino-2-oxopyrimidin-1-yl)-2-ethyl-3-[(2-methylpropanoyl)oxy]oxolan-2-yl] methyl 2-methylpropanoate]	< 4.00	< 4.00	< 4.00	< 6.00
C=C[C@]1(COC(=O)C(C)C)O[C@@H](n2ccc(N)nc2=O)C[C@@H]1OC(=O)C(C)C [Compound 53, [(2R,3S,5R)-5-(4-amino-2-oxopyrimidin-1-yl)-2-ethenyl-3-[(2-methylpropanoyl)oxy]oxolan-2-yl] methyl 2-methylpropanoate]	< 4.00	< 4.00	< 4.00	< 6.00
CC(C)[C@]1(CO)O[C@@H](n2ccc(N)nc2=O)C[C@@H]1O [Compound 55, 4-amino-1-[(2R,4S,5R)-4-hydroxy-5-(hydroxymethyl)-5-isopropyloxolan-2-yl] pyrimidin-2-one]	< 4.00	< 4.00	< 4.00	< 6.00
C=CCC1(CO)O[C@@H](n2ccc(N)nc2=O)C[C@@H]1O (stereo partly drawn) [Compound 56, 1-((2R,4S)-5-allyl-4-hydroxy-5-(hydroxymethyl)tetrahydrofuran-2-yl)-4-aminopyrimidin-2(1H)-one]	< 4.00	< 4.00	< 4.00	< 6.00
CCCC1(CO)O[C@@H](n2ccc(N)nc2=O)C[C@@H]1O (stereo partly drawn) [Compound 57, 4-amino-1-((2R,4S,5R)-4-hydroxy-5-(hydroxymethyl)-5-propyltetrahydrofuran-2-yl)pyrimidin-2(1H)-one]	< 4.00	< 4.00	< 4.00	< 6.00
CC(C)C(=O)OC[C@@]1(CCl)O[C@@H](n2cc(F)c(N)nc2=O)C[C@@H]1OC(=O)C(C)C [Compound 58]	< 4.00	< 4.00	4.30 to 5.00	< 6.00
CCC[C@]1(CO)O[C@@H](n2ccc(N)nc2=O)C[C@@H]1O [Compound 60, 4-amino-1-((2R,4S,5R)-4-hydroxy-5-(hydroxymethyl)-5-propyltetrahydrofuran-2-yl)pyrimidin-2(1H)-one]	< 4.00	< 4.00	< 4.00	< 6.00
Nc1ccn([C@H]2C[C@H](O)[C@](CO)(CC(F)(F)F)O2)c(=O)n1 [Compound 62, 4-amino-1-[(2R,4S,5R)-4-hydroxy-5-(hydroxymethyl)-5-(2,2,2-trifluoroethyl)oxolan-2-yl] pyrimidin-2-one]	4.30 to 5.00	4.30 to 5.00	4.30 to 5.00	< 6.00
